We go through 21 molecules from patent publication US10544130B2, “Metallo-beta-lactamase inhibitors” (priority 2015, dated 2020).

Structures are written as SMILES.

The subject of this data set is Pseudomonas aeruginosa PAO1 MB9798 (efflux+, IMP-1). The note with it: ratio MITC95 PA 9798/MITC95 PA 9799; imipenem at 2 μg/mL. The gist of the method:
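Isogenic PAO1 pair (efflux+ MB9798, efflux− MB9799, both IMP-1) tested by microbroth MIC with fixed imipenem and/or ceftazidime, usually at CLSI breakpoint, plus fixed class A/C inhibitor against AmpC. MBL inhibitor titrated; concentration restoring susceptibility recorded and fold difference between strains taken as efflux extent.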
Consider `Nc1ncccc1-c1ccc(S(=O)(=O)NC[C@@H](N)CO)c(S(N)(=O)=O)c1-c1nn[nH]n1` [Example 214, (R)-N1-(2-amino-3-hydroxypropyl)-4-(2-aminopyridin-3-yl)-3-(2H-tetrazol-5-yl)benzene-1,2-disulfonamide], for which the Efflux ratio is on record as 8.00.

Turning to `NC[C@H](CO)NS(=O)(=O)c1ccc(-c2cccnc2N)c(-c2nn[nH]n2)c1S(N)(=O)=O` [Example 215, (R)-N1-(1-amino-3-hydroxypropan-2-yl)-4-(2-aminopyridin-3-yl)-3-(2H-tetrazol-5-yl)benzene-1,2-disulfonamide], the Efflux ratio was determined as 1.00.

As to `Nc1ncccc1-c1ccc(S(=O)(=O)N[C@H]2C[C@@H]2N)c(S(N)(=O)=O)c1-c1nn[nH]n1` [Example 216, N1-((1S)-2-aminocyclopropyl)-4-(2-aminopyridin-3-yl)-3-(2H-tetrazol-5-yl)benzene-1,2-disulfonamide], the Efflux ratio stood at 4.00. The value for `Nc1cncc(-c2ccc(S(=O)(=O)N[C@@H]3CCNC3)c(S(N)(=O)=O)c2-c2nn[nH]n2)c1` [Example 219, (R)-4-(5-aminopyridin-3-yl)-N1-(pyrrolidin-3-yl)-3-(2H-tetrazol-5-yl)benzene-1,2-disulfonamide] was 1.00; that for `NS(=O)(=O)c1c(S(=O)(=O)N[C@@H]2CCNC2)ccc(-c2cccnc2N2CCNCC2)c1-c1nn[nH]n1` [Example 220, (R)-4-(2-(piperazin-1-yl)pyridin-3-yl)-N1-(pyrrolidin-3-yl)-3-(2H-tetrazol-5-yl)benzene-1,2-disulfonamide] was 4.00; that for `C[C@H](CN)NS(=O)(=O)c1ccc(-c2cncc(N)c2)c(-c2nn[nH]n2)c1S(N)(=O)=O` [Example 221, (R)—N1-(1-aminopropan-2-yl)-4-(5-aminopyridin-3-yl)-3-(2H-tetrazol-5-yl)benzene-1,2-disulfonamide] was 1.00. The value for `NC[C@H](O)CNS(=O)(=O)c1ccc(-c2ccncc2N)c(-c2nn[nH]n2)c1S(N)(=O)=O` [Example 222, (S)—N1-(3-amino-2-hydroxypropyl)-4-(3-aminopyridin-4-yl)-3-(2H-tetrazol-5-yl)benzene-1,2-disulfonamide] was 1.00; that for `NC[C@H](N)CNS(=O)(=O)c1ccc(-c2cnccc2N)c(-c2nn[nH]n2)c1S(N)(=O)=O` [Example 223, (S)-4-(4-aminopyridin-3-yl)-N1-(2,3-diaminopropyl)-3-(2H-tetrazol-5-yl)benzene-1,2-disulfonamide] was 2.00; that for `NS(=O)(=O)c1c(S(=O)(=O)N[C@@H]2CCNC2)ccc(-c2cccc(-c3nc[nH]n3)c2)c1-c1nn[nH]n1` [Example 225, (R)-N4-(pyrrolidin-3-yl)-2-(2H-tetrazol-5-yl)-3′-(1H-1,2,4-triazol-3-yl)-[1,1′-biphenyl]-3,4-disulfonamide] was 1.00. As to `N[C@@H](CO)CNS(=O)(=O)c1ccc(-c2cccc(C3N=CN=N3)c2)c(-c2nn[nH]n2)c1S(N)(=O)=O` (stereo partly drawn) [Example 226, N4-((R)-2-amino-3-hydroxypropyl)-2-(2H-tetrazol-5-yl)-3′-(3H-1,2,4-triazol-3-yl)-[1,1′-biphenyl]-3,4-disulfonamide], the Efflux ratio is 2.00.

For `NCC(CN)NS(=O)(=O)c1ccc(-c2cccc(-c3nc[nH]n3)c2)c(-c2nn[nH]n2)c1S(N)(=O)=O` [Example 227, N4-(1,3-diaminopropan-2-yl)-2-(2H-tetrazol-5-yl)-3′-(1H-1,2,4-triazol-3-yl)-[1,1′-biphenyl]-3,4-disulfonamide], the Efflux ratio amounted to 1.00.

For `NCCNS(=O)(=O)c1ccc(-c2cccc(-c3n[nH]c(N)n3)c2)c(-c2nn[nH]n2)c1S(N)(=O)=O` [Example 228, 3′-(5-amino-1H-1,2,4-triazol-3-yl)-N4-(2-aminoethyl)-2-(2H-tetrazol-5-yl)-[1,1′-biphenyl]-3,4-disulfonamide], the Efflux ratio came to 1.00. In the case of `NCC(CN)NS(=O)(=O)c1ccc(-c2cccc(C3N=NC(N)=N3)c2)c(-c2nn[nH]n2)c1S(N)(=O)=O` (stereo not drawn) [Example 229, 3′-(5-amino-3H-1,2,4-triazol-3-yl)-N4-(1,3-diaminopropan-2-yl)-2-(2H-tetrazol-5-yl)-[1,1′-biphenyl]-3,4-disulfonamide], the Efflux ratio is on record as 0.50. The value for `NC[C@@H](N)CNS(=O)(=O)c1ccc(-c2cccc(-c3n[nH]c(N)n3)c2)c(-c2nn[nH]n2)c1S(N)(=O)=O` [Example 230, (R)-3′-(5-amino-1H-1,2,4-triazol-3-yl)-N4-(2,3-diaminopropyl)-2-(2H-tetrazol-5-yl)-[1,1′-biphenyl]-3,4-disulfonamide] was 1.00; that for `Nc1nc(-c2cccc(-c3ccc(S(=O)(=O)N[C@@H]4CCNC4)c(S(N)(=O)=O)c3-c3nn[nH]n3)c2)n[nH]1` [Example 231, (R)-3′-(5-amino-1H-1,2,4-triazol-3-yl)-N4-(pyrrolidin-3-yl)-2-(2H-tetrazol-5-yl)-[1,1′-biphenyl]-3,4-disulfonamide] was 1.00; that for `CN1CC[C@@H](NS(=O)(=O)c2ccc(-c3cccc4[nH]c(N)nc34)c(-c3nn[nH]n3)c2S(N)(=O)=O)C1` [Example 232, (R)-4-(2-amino-1H-benzo[d]imidazol-4-yl)-N^1-(1-methylpyrrolidin-3-yl)-3-(2H-tetrazol-5-yl)benzene-1,2-disulfonamide] was 2.00. Consider `C[N+]1(C)CC[C@@H](NS(=O)(=O)c2ccc(-c3cccc4[nH]c(N)nc34)c(-c3nn[nH]n3)c2S(N)(=O)=O)C1.[Cl-]` [Example 233, (R)-3-((4-(2-amino-1H-benzo[d]imidazol-4-yl)-2-sulfamoyl-3-(2H-tetrazol-5-yl)phenyl)sulfonamido)-1,1-dimethylpyrrolidin-1-ium chloride], for which the Efflux ratio was 1.00. The value for `Nc1nc2c(-c3ccc(S(=O)(=O)N[C@@H]4CCNC4)c(S(N)(=O)=O)c3-c3nn[nH]n3)cc(I)cc2[nH]1` [Example 234, (R)-4-(2-amino-6-iodo-1H-benzo[d]imidazol-4-yl)-N^1-(pyrrolidin-3-yl)-3-(2H-tetrazol-5-yl)benzene-1,2-disulfonamide] was 1.00. The value for `NS(=O)(=O)c1c(S(=O)(=O)N[C@@H]2CCNC2)ccc(-c2cccc3[nH]nnc23)c1-c1nn[nH]n1` [Example 235, (R)-4-(1H-benzo[d][1,2,3]triazol-4-yl)-N^1-(pyrrolidin-3-yl)-3-(2H-tetrazol-5-yl)benzene-1,2-disulfonamide] was 0.50; that for `NCCNS(=O)(=O)c1ccc(-c2cccc3[nH]nnc23)c(-c2nn[nH]n2)c1S(N)(=O)=O` [Example 236, N^1-(2-aminoethyl)-4-(1H-benzo[d][1,2,3]triazol-4-yl)-3-(2H-tetrazol-5-yl)benzene-1,2-disulfonamide] was 1.00; that for `C[C@H](CN)NS(=O)(=O)c1ccc(-c2cccc3[nH]nnc23)c(-c2nn[nH]n2)c1S(N)(=O)=O` [Example 237, (R)-N^1-(1-aminopropan-2-yl)-4-(1H-benzo[d][1,2,3]triazol-4-yl)-3-(2H-tetrazol-5-yl)benzene-1,2-disulfonamide] was 0.50.
